According to paper PMC7932537, “Quantitative profiling of protease specificity” (PLoS Computational Biology, 2021):

Key:
MMP-2 [1] = assay: N-terminomic (TMT) analysis of MMP-treated HEK293 secretome: isotopic enrichment of novel N-termini; assay type: biochemical, human
Method: (§1) This was done to achieve a reasonable compromise between the false positive and false negative rates based on the statistical model developed by the authors. […] (See Methods for details).
(§2) HEK293 cells were seeded in 150-mm tissue culture dishes (Corning) and grown to confluence. The confluent cultures were washed with PBS several times to remove serum proteins and kept in serum-free DMEM supplemented with 1 μM GM6001 for 72 hours at 37 C, 5% CO2. The conditioned media was centrifuged at 10,000 x g for 30 minutes at 4 C and concentrated ~100-fold using Centricon Plus-70 (AMD Millipore) 3-kDa m.w. cut-off ultrafilter, and the buffer was exchanged to 50 mM HEPES pH 7.0 containing 150 mM NaCl and 10 mM CaCl2 (Reaction Buffer) using a PD-10 desalting column (GE Healthcare). Aliquots containing 240 μg total protein were incubated at 37 C in the presence of 750 nM MMP2 or 9 or the Reaction Buffer alone for 2 hours. Each reaction was carried out in duplicate. The reactions were stopped by addition of 20 mM EDTA and subjected to denaturation/reduction (4M Urea and 10 mM TCEP, 1 h, 22°C) and alkylation (20 mM iodoacetamide, 30 min, 22°C, in dark). […] The TMT-labeled samples were pooled together, and subjected to TCA precipitation (20% TCA, 16 h, 4°C). Each pellet was washed with -20°C acetone, recovered in 50 mM Tris-HCl pH 8.0, and then digested with trypsin/Lys-C (Promega) for 16 h at 37°C. Digestions were stopped with 0.2% TFA and centrifuged to remove insoluble material. The supernatants were then desalted using Sep-Pak C18 cartridge (50 mg), and then lyophilized.
(§3) Dried pooled sample was reconstituted in 20 mM ammonium formate pH ~10 and fractionated using a Waters Acquity BEH C18 column (2.1x 15 cm, 1.7 μm pore size) mounted on an M-Class Ultra Performance Liquid Chromatography (UPLC) system (Waters). […] A total of 32 fractions were collected and pooled in a non-contiguous manner into 16 total fractions. Pooled fractions were dried to completeness in a SpeedVac concentrator prior to mass spectrometry analysis.
(§4) Dried peptide fractions were reconstituted with 2% ACN-0.1% FA and analyzed by LC-MS/MS using a Proxeon EASY nanoLC system (Thermo Fisher Scientific) coupled to a Q-Exactive Plus mass spectrometer (Thermo Fisher Scientific). […] The mass spectrometer was operated in positive data-dependent acquisition mode. MS1 spectra were measured with a resolution of 70,000 (AGC target: 1e6; mass range: 350–1700 m/z).
(§5) The false discovery rate (FDR) filter for spectrum and protein identification was set to 1%. Carbamidomethylation of cysteines was searched as a fixed modification, while oxidation of methionines and N-terminal acetylation were searched as variable modifications. Enzyme was set to trypsin in a semispecific mode and a maximum of two missed cleavages was allowed for searching. To obtain quantification of the TMT-labeled N-termini, two independent searches were performed–one with TMT10plex MS2 N-terminal reporter quantification and the other for quantification of N-terminal and lysine sidechain.

MMP-9 [2] = assay: as above; assay type: biochemical, human; details: MMP9; HEK293 proteins, common set of MMP2-9 selectome; LC-MS/MS
Method: as §1, §2, §3, §4, §5

MMP-9 [3] = assay: Substrate phage display with NGS: relative probability (RP) of P3-P1' tetramer clusters; assay type: biochemical, human; details: MMP9; RP of the substrate's P3-P1' tetramer, substrate phage display with NGS;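 also: ratio of tetramer probability after protease selection to that in naive phage library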
MMP-2 [4] = target: T1, MMP-2 (Homo sapiens, UniProt P08253); assay: K(obs) of individual phage substrates (set of 1369); assay type: biochemical; details: MMP2; individual phage substrate from the set of 1369 peptides; hyphen in the sequence marks the cleavage position
T1 sequence (P08253 110-660): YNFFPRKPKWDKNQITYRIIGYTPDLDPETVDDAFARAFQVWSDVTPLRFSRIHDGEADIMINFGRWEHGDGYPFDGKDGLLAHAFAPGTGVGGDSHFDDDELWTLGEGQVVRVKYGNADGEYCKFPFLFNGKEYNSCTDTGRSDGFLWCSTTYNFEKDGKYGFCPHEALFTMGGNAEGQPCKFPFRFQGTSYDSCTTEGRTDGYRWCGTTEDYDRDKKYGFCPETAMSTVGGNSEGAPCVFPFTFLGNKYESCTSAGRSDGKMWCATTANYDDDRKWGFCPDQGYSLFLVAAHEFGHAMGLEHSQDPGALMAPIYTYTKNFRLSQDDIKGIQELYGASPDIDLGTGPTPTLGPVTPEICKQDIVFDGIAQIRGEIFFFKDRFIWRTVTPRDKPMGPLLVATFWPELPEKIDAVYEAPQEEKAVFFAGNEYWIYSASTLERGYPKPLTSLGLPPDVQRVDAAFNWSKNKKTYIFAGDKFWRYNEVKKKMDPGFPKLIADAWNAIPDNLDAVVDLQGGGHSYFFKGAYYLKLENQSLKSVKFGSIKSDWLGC

MMP-9 [5] = target: MMP-9 (Homo sapiens, UniProt P14780); assay: as above; assay type: biochemical; details: MMP9; individual phage substrate of the set of 1369 peptides; dash in sequence marks cleavage position
Chain of MMP-9 (Homo sapiens, UniProt P14780) (P14780 94-707): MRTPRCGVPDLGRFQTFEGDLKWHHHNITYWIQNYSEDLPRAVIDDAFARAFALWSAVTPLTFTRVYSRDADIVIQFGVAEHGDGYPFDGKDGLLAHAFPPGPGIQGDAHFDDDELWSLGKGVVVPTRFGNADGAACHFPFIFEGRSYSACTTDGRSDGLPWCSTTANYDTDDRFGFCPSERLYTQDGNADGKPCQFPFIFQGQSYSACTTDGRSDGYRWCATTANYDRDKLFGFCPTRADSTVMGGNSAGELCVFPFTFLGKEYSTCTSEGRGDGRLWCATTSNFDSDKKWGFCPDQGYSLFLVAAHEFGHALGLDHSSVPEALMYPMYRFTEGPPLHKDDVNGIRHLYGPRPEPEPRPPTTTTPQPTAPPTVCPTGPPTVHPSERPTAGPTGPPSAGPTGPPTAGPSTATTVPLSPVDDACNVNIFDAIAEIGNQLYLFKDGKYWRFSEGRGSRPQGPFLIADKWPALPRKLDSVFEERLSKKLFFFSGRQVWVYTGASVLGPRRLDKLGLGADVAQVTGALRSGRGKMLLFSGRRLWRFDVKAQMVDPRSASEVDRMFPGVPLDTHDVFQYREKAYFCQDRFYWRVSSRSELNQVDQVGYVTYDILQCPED

| Kobs (MMP-2 [4]) | Kobs (MMP-9 [5]) | Substance | isotopic enrichment (log2(ratio)) (MMP-2 [1]; MMP2 cleavages in HEK293 cell proteins, determined by LC-MS/MS, novel N-termini, sections log2(ratio) >3σ, 2σ-3σ, 1σ-2σ, RP above 4.5) | isotopic enrichment (log2(ratio)) (acc.to MMP2) (MMP-2 [1]; MMP2 cleaved HEK293 proteins, common set of MMP2-9 selectome, LC-MS/MS) | isotopic enrichment (log2(ratio)) (acc.to MMP9) (MMP-9 [2]) | relative probability (RP) (MMP-9 [3]) |
| --- | --- | --- | --- | --- | --- | --- |
| 3079.62 M⁻¹ s⁻¹ | 12792.1 M⁻¹ s⁻¹ | SGVRA-VYSTA | – | – | – | 25.1531 |
| 6688.74 M⁻¹ s⁻¹ | 9740.44 M⁻¹ s⁻¹ | GDPRW-LSTAS | – | – | – | 47.776 |
| 12792.1 M⁻¹ s⁻¹ | 12792.1 M⁻¹ s⁻¹ | GRPLN-LSTAS | – | – | – | 48.0943 |
| 1513.13 M⁻¹ s⁻¹ | 4613.14 M⁻¹ s⁻¹ | SGPYS-WQVTA | – | – | – | 33.8051 |
| 3253.29 M⁻¹ s⁻¹ | 12792.1 M⁻¹ s⁻¹ | SGVRA-IRQTA | – | – | – | 39.7636 |
| 2409.72 M⁻¹ s⁻¹ | 4922.1 M⁻¹ s⁻¹ | SGPKW-MRHTA | – | – | – | 51.5185 |
| 0 M⁻¹ s⁻¹ | 2837.92 M⁻¹ s⁻¹ | SGPLK-ITRTA | – | – | – | 38.9391 |
| 12792.1 M⁻¹ s⁻¹ | 2545.25 M⁻¹ s⁻¹ | YASIR-TASGA | – | – | – | 0.562 |
| 6688.74 M⁻¹ s⁻¹ | 0 M⁻¹ s⁻¹ | SGISA-LRKTA | – | – | – | 16.3812 |
| 12792.1 M⁻¹ s⁻¹ | 12792.1 M⁻¹ s⁻¹ | SGPSW-IMRTA | – | – | – | 43.303 |
| 12792.1 M⁻¹ s⁻¹ | 12792.1 M⁻¹ s⁻¹ | SGPRQ-LSTTA | – | – | – | 43.5363 |
| 12792.1 M⁻¹ s⁻¹ | 7015.91 M⁻¹ s⁻¹ | SGPSH-WIGTA | – | – | – | 19.8718 |
| 2615.58 M⁻¹ s⁻¹ | 2615.58 M⁻¹ s⁻¹ | FVVRL-LTASG | – | – | – | 11.0035 |
| 1610.61 M⁻¹ s⁻¹ | 5667.28 M⁻¹ s⁻¹ | SGVRG-MHGTA | – | – | – | 38.9419 |
| 12792.1 M⁻¹ s⁻¹ | 12792.1 M⁻¹ s⁻¹ | KSPRP-YTASG | – | – | – | 47.6856 |
| 7386.83 M⁻¹ s⁻¹ | 2761.81 M⁻¹ s⁻¹ | GMVRG-VTASG | – | – | – | 13.8249 |

| Kobs (MMP-2 [4]) | Kobs (MMP-9 [5]) | Substance | isotopic enrichment (log2(ratio)) (MMP-2 [1]; MMP2 cleavages in HEK293 cell proteins, determined by LC-MS/MS, novel N-termini, sections log2(ratio) >3σ, 2σ-3σ, 1σ-2σ, RP above 4.5) | isotopic enrichment (log2(ratio)) (acc.to MMP2) (MMP-2 [1]; MMP2 cleaved HEK293 proteins, common set of MMP2-9 selectome, LC-MS/MS) | isotopic enrichment (log2(ratio)) (acc.to MMP9) (MMP-9 [2]) | relative probability (RP) (MMP-9 [3]) |
| --- | --- | --- | --- | --- | --- | --- |
| 12792.1 M⁻¹ s⁻¹ | 551.253 M⁻¹ s⁻¹ | HVVAQ-LTASG | – | – | – | 6.994 |
| 6131.32 M⁻¹ s⁻¹ | 4613.14 M⁻¹ s⁻¹ | SGPQW-MINTA | – | – | – | 45.9264 |
| 4205.91 M⁻¹ s⁻¹ | 4922.1 M⁻¹ s⁻¹ | RMWRA-FTASG | – | – | – | 17.7749 |
| 4335.13 M⁻¹ s⁻¹ | 7815.03 M⁻¹ s⁻¹ | SGVKG-MYSTA | – | – | – | 17.5008 |
| 12792.1 M⁻¹ s⁻¹ | 12792.1 M⁻¹ s⁻¹ | YGPSL-LTASG | – | – | – | 32.4935 |
| 12792.1 M⁻¹ s⁻¹ | 12792.1 M⁻¹ s⁻¹ | RGPSS-YTASG | – | – | – | 41.6306 |
| 12792.1 M⁻¹ s⁻¹ | 10866.7 M⁻¹ s⁻¹ | RRPSA-LTASG | – | – | – | 47.6113 |
| 0 M⁻¹ s⁻¹ | 3438.54 M⁻¹ s⁻¹ | RFPLK-VTASG | – | – | – | 22.8859 |
| 0 M⁻¹ s⁻¹ | 9740.44 M⁻¹ s⁻¹ | MGPWF-MTASG | – | – | – | 35.6409 |
| 12792.1 M⁻¹ s⁻¹ | 12792.1 M⁻¹ s⁻¹ | IAPEF-LTASG | – | – | – | 20.835 |
| 6396.07 M⁻¹ s⁻¹ | 6688.74 M⁻¹ s⁻¹ | SGPHY-LMMTA | – | – | – | 37.3972 |
| 8321.48 M⁻¹ s⁻¹ | 12792.1 M⁻¹ s⁻¹ | VMPSG-FTASG | – | – | – | 36.6478 |
| 12792.1 M⁻¹ s⁻¹ | 12792.1 M⁻¹ s⁻¹ | HTVRG-LTASG | – | – | – | 42.3063 |
| 5090.5 M⁻¹ s⁻¹ | 1561.44 M⁻¹ s⁻¹ | GWIAT-LRTAS | – | – | – | 0.199 |
| 12792.1 M⁻¹ s⁻¹ | 951.362 M⁻¹ s⁻¹ | MGLAN-LTASG | – | – | – | 11.5381 |

More lines, now with the values behind:

| Substance | Kobs (MMP-2 [4]) | Kobs (MMP-9 [5]) | isotopic enrichment (log2(ratio)) (MMP-2 [1]; MMP2 cleavages in HEK293 cell proteins, determined by LC-MS/MS, novel N-termini, sections log2(ratio) >3σ, 2σ-3σ, 1σ-2σ, RP above 4.5) | isotopic enrichment (log2(ratio)) (acc.to MMP2) (MMP-2 [1]; MMP2 cleaved HEK293 proteins, common set of MMP2-9 selectome, LC-MS/MS) | isotopic enrichment (log2(ratio)) (acc.to MMP9) (MMP-9 [2]) | relative probability (RP) (MMP-9 [3]) |
| --- | --- | --- | --- | --- | --- | --- |
| PTAAA-IAYGLD | – | – | 1.585 log2(ratio) | 1.585 | 0.8074 | – |
| YKPVY-YTASG | 12792.1 M⁻¹ s⁻¹ | 12792.1 M⁻¹ s⁻¹ | – | – | – | 30.5191 |
| VFPQG-MTASG | 2476.66 M⁻¹ s⁻¹ | 8321.48 M⁻¹ s⁻¹ | – | – | – | 46.1377 |
| GMPRS-YITAS | 12792.1 M⁻¹ s⁻¹ | 12792.1 M⁻¹ s⁻¹ | – | – | – | 44.546 |
| SGISW-MRHTA | 7815.03 M⁻¹ s⁻¹ | 2476.66 M⁻¹ s⁻¹ | – | – | – | 21.4 |
| RLVNW-MTASG | 3850.82 M⁻¹ s⁻¹ | 2687.73 M⁻¹ s⁻¹ | – | – | – | 19.0749 |
| GMPRA-YRTAS | 12792.1 M⁻¹ s⁻¹ | 12792.1 M⁻¹ s⁻¹ | – | – | – | 46.2238 |
| VEAVA-ITASG | 5090.5 M⁻¹ s⁻¹ | 4922.1 M⁻¹ s⁻¹ | – | – | – | 21.5568 |
| GRATA-LYTAS | 4082.43 M⁻¹ s⁻¹ | 1283.43 M⁻¹ s⁻¹ | – | – | – | 15.5991 |
| FLPRM-LTASG | 12792.1 M⁻¹ s⁻¹ | 12792.1 M⁻¹ s⁻¹ | – | – | – | 42.2884 |
| FAPAE-VTASG | 12792.1 M⁻¹ s⁻¹ | 3438.54 M⁻¹ s⁻¹ | – | – | – | 5.593 |
| RQPRN-VTASG | 6131.32 M⁻¹ s⁻¹ | 12792.1 M⁻¹ s⁻¹ | – | – | – | 40.3866 |
| SGVKW-LMSTA | 4335.13 M⁻¹ s⁻¹ | 12792.1 M⁻¹ s⁻¹ | – | – | – | 39.0108 |
| FDVWM-LTASG | 912.511 M⁻¹ s⁻¹ | 1283.43 M⁻¹ s⁻¹ | – | – | – | 17.1619 |
| TSPGL-LTASG | 12792.1 M⁻¹ s⁻¹ | 690.17 M⁻¹ s⁻¹ | – | – | – | 19.6268 |
| KFPAS-LTASG | 12792.1 M⁻¹ s⁻¹ | 12792.1 M⁻¹ s⁻¹ | – | – | – | 46.2982 |
| SGWRA-YTGTA | 2476.66 M⁻¹ s⁻¹ | 9740.44 M⁻¹ s⁻¹ | – | – | – | 29.3104 |
| SGPVH-MWNTA | 1154.21 M⁻¹ s⁻¹ | 1154.21 M⁻¹ s⁻¹ | – | – | – | 35.975 |
| KRLAF-LTASG | 12792.1 M⁻¹ s⁻¹ | 912.511 M⁻¹ s⁻¹ | – | – | – | 0.6348 |
| KHPYK-YTASG | 1816.46 M⁻¹ s⁻¹ | 12792.1 M⁻¹ s⁻¹ | – | – | – | 33.5853 |
